Data on 20 molecules can be found in ChEMBL document CHEMBL4265986, “Structural exploration of cinnamate-based phosphonic acids as inhibitors of bacterial ureases” (Eur J Med Chem, 2018).

In general, IC50 refers to the concentration that gives 50% inhibition. A low value points to greater potency in that assay. For orientation: Ki means a measure of affinity in units of concentration, obtained from inhibition or displacement. Higher therefore signals a looser hold on the target. One may read the LC50 as the concentration that kills 50% of the test population.

For assay [1], the system named is Sporosarcina pasteurii. Put plainly: Slow binding inhibition of Sporosarcina pasteurii CCM 2056 urease assessed as residence time using urea as substrate after 120 mins by indophenol blue detection based phenol-hypochlorite method.
The nature of assay [2]: Inhibition of Sporosarcina pasteurii CCM 2056 urease using urea as substrate preincubated for 2 hrs by indophenol blue detection based phenol-hypochlorite method.
Assay [3] has as its system Sporosarcina pasteurii. The assay is described as follows: Slow binding inhibition of Sporosarcina pasteurii CCM 2056 urease assessed as dissociation rate constant using urea as substrate after 120 mins by indophenol blue detection based phenol-hypochlorite method.
The nature of assay [4]: Inhibition of Proteus mirabilis PCM543 urease using urea as substrate preincubated for 2 hrs by indophenol blue detection based phenol-hypochlorite method.
Assay [5] can be described thus: Mixed type inhibition of Sporosarcina pasteurii CCM 2056 urease using urea as substrate preincubated for 2 hrs by indophenol blue detection based phenol-hypochlorite method.
Assay [6] relates to Proteus mirabilis. Put plainly: Antimicrobial activity against Proteus mirabilis PCM543 assessed as inhibition of microbial proliferation preincubated for 2 hrs by MTT assay. In kind it is functional. (In general: Tetrazolium dyes change colour on reduction, which living cells bring about.)
Assay [7] in a line: Inhibition of Sporosarcina pasteurii CCM 2056 urease using urea as substrate after 10 mins by indophenol blue detection based phenol-hypochlorite method.

As to `COC(=O)/C(=C/c1ccc(Cl)cc1)CCCCP(=O)(O)O`, the TIME in assay [1] came out at 0.135 h. The IC50 in assay [2] was 6.35 µM; in assay [4], 27.4 µM; in assay [7], 58.3 µM. The K in assay [3] came out at 0.00206 s⁻¹. This molecule also came in with an inhibition constant (Ki) in assay [5] of 4.71 µM. In assay [6], the LC50 came to 638 µM.
Take `COC(=O)/C(=C/c1ccccc1)CCCCP(=O)(O)O`: the IC50 in assay [2] is 54 µM; in assay [4] it was 476 µM; in assay [7], 55 µM. For the same molecule, in assay [5], the affinity corresponds to a Ki of 50.5 µM. Further, the LC50 in assay [6] was determined as 469 µM.
As for `O=C(O)/C(=C/c1ccccc1)CCCCP(=O)(O)O`, the IC50 in assay [2] came out at 3.83 µM; in assay [4] it was 32.6 µM; in assay [7], 4.89 µM. Further, the inhibition constant (Ki) in assay [5] amounted to 3.51 µM. Moreover, in assay [6], the LC50 turned out to be 97.6 µM.
Take `O=C(O)/C(=C/c1ccc(Cl)cc1)CCCCP(=O)(O)O`: the IC50 in assay [2] stood at 2.34 µM; in assay [4], 22.2 µM; in assay [7], 5.83 µM. Further, in assay [5], the Ki came out at 1.75 µM. For the same molecule, the LC50 in assay [6] came to 435 µM.
As for `O=C(O)/C(=C/c1ccc(F)cc1)CCCCP(=O)(O)O`, the TIME in assay [1] stood at 0.206 h. Also, the figures for the IC50 in assay [2], in assay [4] and in assay [7] were 2.91 µM, 14.1 µM and 9.98 µM, respectively. Also, the K in assay [3] worked out at 0.00135 s⁻¹. Besides, the inhibition constant (Ki) in assay [5] was found to be 2.58 µM. The LC50 in assay [6] was 192 µM.
With `COC(=O)/C(=C/c1ccc(C)cc1)CCCCP(=O)(O)O`, the values for the IC50 in assay [2], in assay [4] and in assay [7] were 261 µM, 1550 µM and 294 µM, respectively. In assay [5], this molecule yielded a Ki of 219 µM. For the same molecule, the 50% lethal concentration (LC50) in assay [6] worked out at 659 µM.
As to `O=C(O)/C(=C/c1ccc(Cl)cc1)CCCP(=O)(O)O`, the IC50 worked out at 1.62 µM in assay [2], 18.6 µM in assay [4] and 2.49 µM in assay [7]. Besides, in assay [5], the affinity corresponds to a Ki of 1.43 µM. Also, the LC50 in assay [6] was found to be 122 µM.
As for `COc1ccc(/C=C(\CCCCP(=O)(O)O)C(=O)O)cc1`, the IC50 in assay [2] is 14.5 µM; in assay [4], 114 µM; in assay [7], 16.6 µM. In addition, the inhibition constant Ki in assay [5] came out at 9.31 µM. In assay [6], the LC50 amounted to 28.6 µM.
In the case of `COC(=O)/C(=C/c1ccc(Cl)cc1)CCCP(=O)(O)O`, the IC50 in assay [2] was 49.8 µM; in assay [4], 521 µM; in assay [7] it was 109 µM. In assay [5], this molecule returned a Ki of 42.5 µM. Besides, the LC50 in assay [6] was 89.6 µM.
`COC(=O)/C(=C/c1ccccc1)CCCP(=O)(O)O`: the IC50 in assay [2] was found to be 328 µM; in assay [4] it was 1590 µM; in assay [7], 449 µM. For the same molecule, the inhibition constant (Ki) in assay [5] came out at 289 µM. In addition, the LC50 in assay [6] was determined as 556 µM.
For the molecule `COC(=O)/C(=C/c1ccc(F)cc1)CCCCP(=O)(O)O`, the IC50 in assay [2] was found to be 130 µM; in assay [4] it was 630 µM; in assay [7], 164 µM. Also, in assay [5], the Ki was 116 µM. In assay [6], the LC50 is 1060 µM.
For `COC(=O)/C(=C/c1ccc(C)cc1)CCCP(=O)(O)O`, the figures for the IC50 in assay [2], in assay [4] and in assay [7] were 248 µM, 1430 µM and 265 µM, respectively. In addition, the Ki in assay [5] was 227 µM. For the same molecule, the LC50 in assay [6] was determined as 292 µM.
For `COC(=O)/C(=C/c1ccc(OC)cc1)CCCCP(=O)(O)O`, in that order: 22.6 µM, 162 µM, 24.5 µM, 21.4 µM and 160 µM.
As for `Cc1ccc(/C=C(\CCCP(=O)(O)O)C(=O)O)cc1`, the IC50 worked out at 24.6 µM in assay [2], 156 µM in assay [4] and 30 µM in assay [7]. The Ki in assay [5] came to 19.4 µM. Also, the median lethal concentration (LC50) in assay [6] worked out at 139 µM.
`O=C(O)/C(=C/c1ccccc1)CCCP(=O)(O)O`: the TIME in assay [1] worked out at 0.407 h. Besides, the IC50 in assay [2] came to 0.743 µM; in assay [4], 11 µM; in assay [7], 3.1 µM. Also, the K in assay [3] stood at 0.000682 s⁻¹. For the same molecule, the affinity in assay [5], expressed as Ki, was 0.509 µM. Besides, in assay [6], the LC50 is 135 µM.
With `COC(=O)/C(=C/c1ccc(OC)cc1)CCCP(=O)(O)O`, the TIME in assay [1] was 0.114 h. Moreover, the IC50 in assay [2] was found to be 10.8 µM; in assay [4], 75.1 µM; in assay [7], 35.3 µM. The K in assay [3] is 0.00244 s⁻¹. In assay [5], this molecule came in with a Ki of 6.04 µM. The LC50 in assay [6] worked out at 236 µM.
With `Cc1ccc(/C=C(\CCCCP(=O)(O)O)C(=O)O)cc1`, the values for the IC50 in assay [2], in assay [4] and in assay [7] were 8.53 µM, 52.6 µM and 9.24 µM, respectively. Also, in assay [5], the affinity, expressed as Ki, was 7.21 µM. For the same molecule, the LC50 in assay [6] turned out to be 49.8 µM.
In the case of `COc1ccc(/C=C(\CCCP(=O)(O)O)C(=O)O)cc1`, the IC50 in assay [2] turned out to be 4.98 µM; in assay [4] it was 39.7 µM; in assay [7] it was 10 µM. In assay [5], the Ki was 3.4 µM. Further, the median lethal concentration (LC50) in assay [6] came to 65.2 µM.
For `COC(=O)/C(=C/c1ccc(F)cc1)CCCP(=O)(O)O`, in that order: 105 µM, 735 µM, 221 µM, 87.2 µM and 215 µM.
On to `O=C(O)/C(=C/c1ccc(F)cc1)CCCP(=O)(O)O`, for which the IC50 came out at 3.82 µM in assay [2], 38 µM in assay [4] and 4.9 µM in assay [7]. Further, the Ki in assay [5] was 1.8 µM. The median lethal concentration (LC50) in assay [6] was determined as 121 µM.
